Data from patent US20250034135A1, “ANTI-APOPTOTIC PROTEIN BCL-2 INHIBITOR, PHARMACEUTICAL COMPOSITION AND USES THEREOF” (HANGZHOU HEALZEN THERAPEUTICS CO., LTD., priority 2021, published 2025).

target: BCL2 (Homo sapiens (Human), UniProt P10415); test: Molecular level activity test of anti-apoptotic protein BCL2 (HTRF, binding to Bim peptide); details: HTRF, binding of BCL2 to Bim peptide; read-out: BCL2 nM (inhibitory activity, IC50)
Procedure: The detection of the binding ability between anti-apoptotic protein BCL2 and pro-apoptotic protein Bim was performed using Homogeneous Time-Resolved Fluorescence technology. The reaction of this method occurred in a white shallow 384-well plate, with a total reaction volume of 10 μL. Specifically, it included 2 μL of the compound to be tested (2% DMSO), 4 μL His-tagged recombinant protein, and 4 μL Biotin-tagged BIM protein peptide. After 1 hour of reaction, 5 μL of each Anti-His and streptavidin-tagged XL665 antibody diluents diluted with a detection buffer were added. After incubating at room temperature for 4 hours, the values were read using the Envision multifunctional microplate reader to detect the effect of the compound to be tested on the binding ability of BCL2 to Bim protein peptides.

BCL2, sequence (P10415 whole entry): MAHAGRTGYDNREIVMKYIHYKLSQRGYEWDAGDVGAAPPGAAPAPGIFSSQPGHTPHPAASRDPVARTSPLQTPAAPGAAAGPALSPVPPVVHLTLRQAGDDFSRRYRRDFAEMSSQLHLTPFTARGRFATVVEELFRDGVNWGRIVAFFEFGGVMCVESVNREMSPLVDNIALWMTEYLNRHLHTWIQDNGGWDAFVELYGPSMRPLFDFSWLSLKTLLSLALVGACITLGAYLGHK

IC50, < 10 nM:
COc1ccc(CN2CCN(C3CC4(C3)CN(c3ccc(C(=O)NS(=O)(=O)c5cc([N+](=O)[O-])c(NC[C@H]6CC[C@](C)(O)CC6)c6[nH]cnc56)c(Oc5cnc6[nH]ccc6c5)c3)C4)C(c3ccccc3C(C)C)C2)cc1 (stereo partly shown) [compound 040, 2-((1H-pyrrolo[2,3-b]pyrid-5-yl)oxy)-N-((7-((((1r,4r)-4-hydroxy-4-methylcyclohexyl)methyl)amino)-6-nitro-1H-benzo[d]imidazol-4-yl)sulfonyl)-4-(6-(2-(2-isopropylphenyl)-4-(4-methoxybenzyl)piperazin-1-yl)-2-azaspiro[3.3]hept-2-yl)benzamide]
CC(C)c1ccccc1C1CN(C(C)C)CCN1C1CC2(CCN(c3ccc(C(=O)NS(=O)(=O)c4cc([N+](=O)[O-])c(NC[C@H]5CC[C@](C)(O)CC5)c5[nH]cnc45)c(Oc4cnc5[nH]ccc5c4)c3)CC2)C1 (stereo partly shown) [compound 041, 2-((1H-pyrrolo[2,3-b]pyrid-5-yl)oxy)-N-((7-((((1r,4r)-4-hydroxy-4-methylcyclohexyl)methyl)amino)-6-nitro-1H-benzo[d]imidazol-4-yl)sulfonyl)-4-(2-(4-isopropyl-2-(2-isopropylphenyl)piperazin-1-yl)-7-azaspiro[3.5]non-7-yl)benzamide]
CC(C)c1ccccc1C1CN(C(C)C)CCN1C1CC2(C1)CN(c1ccc(C(=O)NS(=O)(=O)c3cc([N+](=O)[O-])c(NCC4(F)CCN(C(C)C)CC4)c4[nH]cnc34)c(Oc3cnc4[nH]ccc4c3)c1)C2 (stereo not shown) [compound 042, 2-((1H-pyrrolo[2,3-b]pyrid-5-yl)oxy)-N-((7-(((4-fluoro-1-isopropylpiperid-4-yl)methyl)amino)-6-nitro-1H-benzo[d]imidazol-4-yl)sulfonyl)-4-(6-(4-isopropyl-2-(2-isopropylphenyl)piperazin-1-yl)-2-azaspiro[3.3]hept-2-yl)benzamide]
CC(C)c1ccccc1C1CN(C2CCOCC2)CCN1C1CC2(CCN(c3ccc(C(=O)NS(=O)(=O)c4cc([N+](=O)[O-])c(NC[C@H]5CC[C@](C)(O)CC5)c5[nH]cnc45)c(Oc4cnc5[nH]ccc5c4)c3)CC2)C1 (stereo partly shown) [compound 043, 2-((1H-pyrrolo[2,3-b]pyrid-5-yl)oxy)-N-((7-((((1r,4r)-4-hydroxy-4-methylcyclohexyl)methyl)amino)-6-nitro-1H-benzo[d]imidazol-4-yl)sulfonyl)-4-(2-(2-(2-isopropylphenyl)-4-(tetrahydro-2H-pyran-4-yl)piperazin-1-yl)-7-azaspiro[3.5]non-7-yl)benzamide]
CC(C)c1ccccc1C1CN(C2CCOCC2)CCN1C1CC2(C1)CN(c1ccc(C(=O)NS(=O)(=O)c3cc([N+](=O)[O-])c(NCC4(F)CCN(C(C)C)CC4)c4[nH]cnc34)c(Oc3cnc4[nH]ccc4c3)c1)C2 (stereo not shown) [compound 044, 2-((1H-pyrrolo[2,3-b]pyrid-5-yl)oxy)-N-((7-(((4-fluoro-1-isopropylpiperid-4-yl)methyl)amino)-6-nitro-1H-benzo[d]imidazol-4-yl)sulfonyl)-4-(6-(2-(2-isopropylphenyl)-4-(tetrahydro-2H-pyran-4-yl)piperazin-1-yl)-2-azaspiro[3.3]hept-2-yl)benzamide]
COc1ccc(CN2CCN(C3CC4(CCN(c5ccc(C(=O)NS(=O)(=O)c6cc([N+](=O)[O-])c(NC[C@H]7CC[C@](C)(O)CC7)c7[nH]cnc67)c(Oc6cnc7[nH]ccc7c6)c5)CC4)C3)C(c3ccccc3C(C)C)C2)cn1 (stereo partly shown) [compound 045, 2-((1H-pyrrolo[2,3-b]pyrid-5-yl)oxy)-N-((7-((((1r,4r)-4-hydroxy-4-methylcyclohexyl)methyl)amino)-6-nitro-1H-benzo[d]imidazol-4-yl)sulfonyl)-4-(2-(2-(2-isopropylphenyl)-4-((6-methoxypyrid-3-yl)methyl)piperazin-1-yl)-7-azaspiro[3.5]non-7-yl)benzamide]
COc1ccc(CN2CCN(C3CC4(C3)CN(c3ccc(C(=O)NS(=O)(=O)c5cc([N+](=O)[O-])c(NCC6(F)CCN(C(C)C)CC6)c6[nH]cnc56)c(Oc5cnc6[nH]ccc6c5)c3)C4)C(c3ccccc3C(C)C)C2)cc1 (stereo not shown) [compound 046, 2-((1H-pyrrolo[2,3-b]pyrid-5-yl)oxy)-N-((7-(((4-fluoro-1-isopropylpiperid-4-yl)methyl)amino)-6-nitro-1H-benzo[d]imidazol-4-yl)sulfonyl)-4-(6-(2-(2-isopropylphenyl)-4-(4-methoxybenzyl)piperazin-1-yl)-2-azaspiro[3.3]hept-2-yl)benzamide]
COc1ccc(CN2CCN(C3CC4(CCN(c5ccc(C(=O)NS(=O)(=O)c6cc([N+](=O)[O-])c(NCC7(F)CCOCC7)c7[nH]cnc67)c(Oc6cnc7[nH]ccc7c6)c5)CC4)C3)C(c3ccccc3C(C)C)C2)cc1 (stereo not shown) [compound 047, 2-((1H-pyrrolo[2,3-b]pyrid-5-yl)oxy)-N-((7-(((4-fluorotetrahydro-2H-pyran-4-yl)methyl)amino)-6-nitro-1H-benzo[d]imidazol-4-yl)sulfonyl)-4-(2-(2-(2-isopropylphenyl)-4-(4-methoxybenzyl)piperazin-1-yl)-7-azaspiro[3.5]non-7-yl)benzamide]
COc1ccc(CN2CCN(C3CC4(CCN(c5ccc(C(=O)NS(=O)(=O)c6cc([N+](=O)[O-])c(NCC7(F)CCN(C(C)C)CC7)c7[nH]cnc67)c(Oc6cnc7[nH]ccc7c6)c5)CC4)C3)C(c3ccccc3C(C)C)C2)cc1 (stereo not shown) [compound 048, 2-((1H-pyrrolo[2,3-b]pyrid-5-yl)oxy)-N-((7-(((4-fluoro-1-isopropylpiperid-4-yl)methyl)amino)-6-nitro-1H-benzo[d]imidazol-4-yl)sulfonyl)-4-(2-(2-(2-isopropylphenyl)-4-(4-methoxybenzyl)piperazin-1-yl)-7-azaspiro[3.5]non-7-yl)benzamide]
COc1ccc(CN2CCN(C3CC4(CCN(c5ccc(C(=O)NS(=O)(=O)c6cc([N+](=O)[O-])c(NC[C@H]7CC[C@](C)(O)CC7)c7[nH]cnc67)c(Oc6cnc7[nH]cc(F)c7c6)c5)CC4)C3)C(c3ccccc3C(C)C)C2)cn1 (stereo partly shown) [compound 049, 2-((3-fluoro-1H-pyrrolo[2,3-b]pyrid-5-yl)oxy)-N-((7-((((1r,4r)-4-hydroxy-4-methylcyclohexyl)methyl)amino)-6-nitro-1H-benzo[d]imidazol-4-yl)sulfonyl)-4-(2-(2-(2-isopropylphenyl)-4-((6-methoxypyrid-3-yl)methyl)piperazin-1-yl)-7-azaspiro[3.5]non-7-yl)benzamide]
COc1ccc(CN2CCN(C3CC4(CCN(c5ccc(C(=O)NS(=O)(=O)c6cc([N+](=O)[O-])c(NCC7(F)CCN(C(C)C)CC7)c7[nH]cnc67)c(Oc6cnc7[nH]cc(F)c7c6)c5)CC4)C3)C(c3ccccc3C(C)C)C2)cc1 (stereo not shown) [compound 050]
CC(C)c1ccccc1C1CN(C2CCOCC2)CCN1C1CC2(CCN(c3cc(Oc4cnc5[nH]ccc5c4)c(C(=O)NS(=O)(=O)c4ccc(NC[C@H]5CC[C@](C)(O)CC5)c([N+](=O)[O-])c4)cn3)CC2)C1 (stereo partly shown) [compound 051, 4-((1H-pyrrolo[2,3-b]pyrid-5-yl)oxy)-N-((4-((((1r,4r)-4-hydroxy-4-methylcyclohexyl)methyl)amino)-3-nitrophenyl)sulfonyl)-6-(2-(2-(2-isopropylphenyl)-4-(tetrahydro-2H-pyran-4-yl)piperazin-1-yl)-7-azaspiro[3.5]non-7-yl) nicotinamide]
CC(C)c1ccccc1C1CN(C2CCOCC2)CCN1C1CC2(C1)CN(c1cc(Oc3cnc4[nH]ccc4c3)c(C(=O)NS(=O)(=O)c3ccc(NC[C@H]4CC[C@](C)(O)CC4)c([N+](=O)[O-])c3)cn1)C2 (stereo partly shown) [compound 052, 4-((1H-pyrrolo[2,3-b]pyrid-5-yl)oxy)-N-((4-((((1r,4r)-4-hydroxy-4-methylcyclohexyl)methyl)amino)-3-nitrophenyl)sulfonyl)-6-(6-(2-(2-isopropylphenyl)-4-(tetrahydro-2H-pyran-4-yl)piperazin-1-yl)-2-azaspiro[3.3]hept-2-yl) nicotinamide]
COc1ccc(CN2CCN(C3CC4(C3)CN(c3cc(Oc5cnc6[nH]ccc6c5)c(C(=O)NS(=O)(=O)c5ccc(NCC6(F)CCN(C7COC7)CC6)c([N+](=O)[O-])c5)cn3)C4)C(c3ccccc3C(C)C)C2)cc1 (stereo not shown) [compound 054]
COc1ccc(CN2CCN(C3CC4(CCN(c5cc(Oc6cnc7[nH]ccc7c6)c(C(=O)NS(=O)(=O)c6ccc(NC[C@H]7CC[C@](C)(O)CC7)c([N+](=O)[O-])c6)cc5F)CC4)C3)C(c3ccccc3C(C)C)C2)cc1 (stereo partly shown) [compound 055, 2-((1H-pyrrolo[2,3-b]pyrid-5-yl)oxy)-5-fluoro-N-((4-((((1r,4r)-4-hydroxy-4-methylcyclohexyl)methyl)amino)-3-nitrophenyl)sulfonyl)-4-(2-(2-(2-isopropylphenyl)-4-(4-methoxybenzyl)piperazin-1-yl)-7-azaspiro[3.5]non-7-yl)benzamide]
COc1ccc(CN2CCN(C3CC4(C3)CN(c3cc(Oc5cnc6[nH]ccc6c5)c(C(=O)NS(=O)(=O)c5ccc(NC[C@H]6CC[C@](C)(O)CC6)c([N+](=O)[O-])c5)cc3F)C4)C(c3ccccc3C(C)C)C2)cc1 (stereo partly shown) [compound 056, 2-((1H-pyrrolo[2,3-b]pyrid-5-yl)oxy)-5-fluoro-N-((4-((((1r,4r)-4-hydroxy-4-methylcyclohexyl)methyl)amino)-3-nitrophenyl)sulfonyl)-4-(6-(2-(2-isopropylphenyl)-4-(4-methoxybenzyl)piperazin-1-yl)-2-azaspiro[3.3]hept-2-yl)benzamide]
